Molecules are shown by their SMILES.

A word on the inhibition: it is the percentage by which the read-out fell short of the control. Lower therefore signals a weak effect. A word on the IC50: it is the concentration that inhibits the measured activity by half. Lower therefore signals greater potency.

Experiment [1] deals with EGFR (UniProt P00533). Particulars: for inhibition: concentration not given here.
Experiment [2] has as its target EGFR (human) (UniProt P00533). To be noted: a549.
In experiment [3] the target is EGFR (human) (UniProt P00533). Particulars: mda468.
EGFR (human), sequence (P00533 whole entry, looked up): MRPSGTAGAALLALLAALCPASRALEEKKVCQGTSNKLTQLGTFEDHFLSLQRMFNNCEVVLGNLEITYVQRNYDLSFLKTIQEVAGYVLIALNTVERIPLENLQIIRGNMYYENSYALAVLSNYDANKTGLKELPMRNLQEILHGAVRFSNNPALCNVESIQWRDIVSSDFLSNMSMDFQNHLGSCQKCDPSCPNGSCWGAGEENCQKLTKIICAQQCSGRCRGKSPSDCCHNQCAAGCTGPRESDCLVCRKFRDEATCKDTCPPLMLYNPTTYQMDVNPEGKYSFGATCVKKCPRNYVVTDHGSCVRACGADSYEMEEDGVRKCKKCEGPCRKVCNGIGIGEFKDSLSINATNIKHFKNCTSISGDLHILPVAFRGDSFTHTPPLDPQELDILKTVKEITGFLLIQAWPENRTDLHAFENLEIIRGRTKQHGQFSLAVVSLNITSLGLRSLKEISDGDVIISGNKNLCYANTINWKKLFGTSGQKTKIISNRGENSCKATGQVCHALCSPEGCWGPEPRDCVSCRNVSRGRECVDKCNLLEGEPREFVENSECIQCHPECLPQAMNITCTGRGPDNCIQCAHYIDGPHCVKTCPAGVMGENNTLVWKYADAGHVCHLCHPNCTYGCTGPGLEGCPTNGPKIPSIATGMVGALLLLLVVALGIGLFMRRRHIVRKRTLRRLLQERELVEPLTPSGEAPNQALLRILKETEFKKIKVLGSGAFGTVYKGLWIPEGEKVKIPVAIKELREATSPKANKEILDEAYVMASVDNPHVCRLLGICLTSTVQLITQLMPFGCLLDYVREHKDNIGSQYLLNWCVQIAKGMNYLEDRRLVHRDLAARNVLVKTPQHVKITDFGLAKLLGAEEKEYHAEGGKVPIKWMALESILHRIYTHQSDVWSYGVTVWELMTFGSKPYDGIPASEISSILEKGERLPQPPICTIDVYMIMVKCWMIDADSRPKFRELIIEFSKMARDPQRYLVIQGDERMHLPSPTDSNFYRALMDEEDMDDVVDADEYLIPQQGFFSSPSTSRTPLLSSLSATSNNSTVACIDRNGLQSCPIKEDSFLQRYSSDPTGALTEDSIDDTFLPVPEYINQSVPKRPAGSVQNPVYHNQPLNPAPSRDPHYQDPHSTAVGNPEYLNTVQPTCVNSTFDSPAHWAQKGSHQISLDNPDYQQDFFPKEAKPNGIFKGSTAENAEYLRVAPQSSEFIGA
The target of experiment [4] is EGFR (human) (UniProt P00533). To be noted: a431.
In experiment [5] the target is EGFR (human) (UniProt P00533). Particulars: mdv-7.
Experiment [6] deals with EGFR (murine) (UniProt P00533). Particulars: fibroblast.
EGFR (murine), sequence (P00533 whole entry, looked up): as above
The target of experiment [7] is EGFR (murine) (UniProt P00533). Particulars: fibroblast. This is another data set of the same source.
The target of experiment [8] is EGFR (human) (UniProt P00533). To be noted: ht-29.
Experiment [9] addresses EGFR (human) (UniProt P00533). Particulars: mda231.

EGFR, sequence (P00533 whole entry, looked up): as above

Turning to `O=C(CCc1c(S)[nH]c2ccccc12)NCc1ccccc1`, in experiment [1], the inhibition is 43%.

In [1], `Cn1c(S)c(C(=O)Nc2ccccc2)c2cc(Cl)ccc21` returned an IC50 of 9 µM.

Turning to `O=C(O)CCc1c(S)[nH]c2ccccc12`, in experiment [1], the IC50 worked out at 1.3 µM.

Molecule `O=C(Cc1c(S)[nH]c2ccccc12)NCc1ccccc1` registered an IC50 in [1] of 25 µM.

On to `CCOC(=O)CCc1c(S)[nH]c2ccccc12`, for which, in experiment [1], the inhibition is 10%.

In experiment [1], `Cn1c(S)c(CCCC(=O)O)c2ccccc21` yielded an IC50 of 23 µM.

`COC(=O)CCCc1c(S)n(C)c2ccccc12` registered an inhibition in [1] of 2%.

The molecule `Cn1c(S)c(CCC(=O)O)c2ccccc21` came in with an IC50 in experiment [1] of 8.5 µM.

Molecule `Cn1c(S)c(C(=O)c2ccc(C(=O)O)cc2)c2ccccc21` yielded an IC50 in [1] of 8.7 µM.

`CCOC(=O)CCc1c(S)n(C)c2ccccc12`: in experiment [1], the inhibition amounted to 3%.

In the case of `Cn1c(S)c(C(=O)Nc2ccccc2)c2ccccc21`, the IC50 in [2] came out at 30 µM; in experiment [3] it was 43 µM; in experiment [4], 62 µM; in experiment [5], 39 µM; in [6], 2 µM; in experiment [1], 1 µM. For the same molecule, the IC50 was 64 µM in experiment [7], 55 µM in experiment [8] and 15 µM in experiment [9].

As for `O=C(O)Cc1c(S)[nH]c2ccccc12`, in experiment [1], the IC50 is 14.9 µM.

The molecule `COC(=O)Cc1c(S)[nH]c2ccccc12` had an inhibition in experiment [1] of 43%.

Molecule `NC(=O)CCc1c(S)[nH]c2ccccc12` gave an IC50 in [1] of 22 µM.

For `CCOC(=O)Cc1c(S)n(C)c2ccccc12`, in experiment [1], the inhibition is 4%.

As for `O=C(O)CCCc1c(S)[nH]c2ccccc12`, the IC50 in experiment [1] came to 6.8 µM.

Source of the values: the Kinase Knowledgebase extract (Sharma et al. 2016).
